Measurements reported in patent US10435388B2, “Selective inhibitors of clinically important mutants of the EGFR tyrosine kinase” (CS PHARMATECH LIMITED, priority 2016, dated 2019).
Several values for one entry are separate records, joined by “and”; a condition that tells them apart may be missing. Identical values can stand only once.

Tests used:
EGFR_T790M/L858R = EGFR_T790M/L858R (Homo sapiens, UniProt P00533, L858R/T790M); assay: Enzyme assay, IC50 for double-mutant EGFR (EGFR_T790M/L858R) (Caliper); type: biochemical; conditions: enzyme phosphorylation assay; read-out: EGFR_L858R/T790 IC50
Chain of EGFR_T790M/L858R (P00533 25-1210 T790M/L858R): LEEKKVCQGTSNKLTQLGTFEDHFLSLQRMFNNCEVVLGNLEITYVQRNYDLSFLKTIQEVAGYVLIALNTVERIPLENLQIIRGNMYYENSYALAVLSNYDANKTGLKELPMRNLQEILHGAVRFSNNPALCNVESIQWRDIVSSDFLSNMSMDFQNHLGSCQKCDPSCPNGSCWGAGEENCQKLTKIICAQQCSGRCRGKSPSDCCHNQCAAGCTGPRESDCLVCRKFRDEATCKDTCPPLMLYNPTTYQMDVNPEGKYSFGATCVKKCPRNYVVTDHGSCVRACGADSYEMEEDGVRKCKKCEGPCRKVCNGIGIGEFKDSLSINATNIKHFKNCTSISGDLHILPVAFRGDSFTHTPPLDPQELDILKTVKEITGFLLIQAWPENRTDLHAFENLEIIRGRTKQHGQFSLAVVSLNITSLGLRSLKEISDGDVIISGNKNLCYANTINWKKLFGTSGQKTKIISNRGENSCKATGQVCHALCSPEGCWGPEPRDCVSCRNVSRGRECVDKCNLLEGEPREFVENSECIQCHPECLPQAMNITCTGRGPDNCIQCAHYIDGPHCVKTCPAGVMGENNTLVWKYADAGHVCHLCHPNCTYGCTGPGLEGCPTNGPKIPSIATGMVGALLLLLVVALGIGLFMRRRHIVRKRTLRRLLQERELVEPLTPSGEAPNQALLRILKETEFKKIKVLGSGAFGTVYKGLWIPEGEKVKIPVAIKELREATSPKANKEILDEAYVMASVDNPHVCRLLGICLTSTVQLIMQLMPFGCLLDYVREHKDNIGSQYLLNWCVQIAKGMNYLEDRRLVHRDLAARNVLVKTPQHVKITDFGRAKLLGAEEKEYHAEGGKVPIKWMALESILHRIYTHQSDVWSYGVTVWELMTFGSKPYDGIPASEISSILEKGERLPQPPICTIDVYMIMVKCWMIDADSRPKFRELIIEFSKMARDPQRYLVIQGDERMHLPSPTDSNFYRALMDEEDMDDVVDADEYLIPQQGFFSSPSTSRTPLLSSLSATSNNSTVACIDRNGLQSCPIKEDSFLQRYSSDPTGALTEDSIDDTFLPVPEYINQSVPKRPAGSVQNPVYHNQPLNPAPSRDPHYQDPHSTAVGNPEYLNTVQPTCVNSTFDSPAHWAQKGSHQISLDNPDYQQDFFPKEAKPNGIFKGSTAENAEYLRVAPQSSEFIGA

Wt EGFR = molecular target: T1, Wt EGFR (Homo sapiens, UniProt P00533); assay: Enzyme assay, IC50 for wt EGFR (Caliper); type: biochemical; conditions: enzyme phosphorylation assay; read-out: EGFR_WT IC50
T1 construct: isolated from A431 human epidermoid carcinoma cells which overexpress EGF receptor; endogenous in cells; host or cells: A431 human epidermoid carcinoma cells (receptor purified on wheat germ agglutinin sepharose)
T1 sequence (P00533 25-1210): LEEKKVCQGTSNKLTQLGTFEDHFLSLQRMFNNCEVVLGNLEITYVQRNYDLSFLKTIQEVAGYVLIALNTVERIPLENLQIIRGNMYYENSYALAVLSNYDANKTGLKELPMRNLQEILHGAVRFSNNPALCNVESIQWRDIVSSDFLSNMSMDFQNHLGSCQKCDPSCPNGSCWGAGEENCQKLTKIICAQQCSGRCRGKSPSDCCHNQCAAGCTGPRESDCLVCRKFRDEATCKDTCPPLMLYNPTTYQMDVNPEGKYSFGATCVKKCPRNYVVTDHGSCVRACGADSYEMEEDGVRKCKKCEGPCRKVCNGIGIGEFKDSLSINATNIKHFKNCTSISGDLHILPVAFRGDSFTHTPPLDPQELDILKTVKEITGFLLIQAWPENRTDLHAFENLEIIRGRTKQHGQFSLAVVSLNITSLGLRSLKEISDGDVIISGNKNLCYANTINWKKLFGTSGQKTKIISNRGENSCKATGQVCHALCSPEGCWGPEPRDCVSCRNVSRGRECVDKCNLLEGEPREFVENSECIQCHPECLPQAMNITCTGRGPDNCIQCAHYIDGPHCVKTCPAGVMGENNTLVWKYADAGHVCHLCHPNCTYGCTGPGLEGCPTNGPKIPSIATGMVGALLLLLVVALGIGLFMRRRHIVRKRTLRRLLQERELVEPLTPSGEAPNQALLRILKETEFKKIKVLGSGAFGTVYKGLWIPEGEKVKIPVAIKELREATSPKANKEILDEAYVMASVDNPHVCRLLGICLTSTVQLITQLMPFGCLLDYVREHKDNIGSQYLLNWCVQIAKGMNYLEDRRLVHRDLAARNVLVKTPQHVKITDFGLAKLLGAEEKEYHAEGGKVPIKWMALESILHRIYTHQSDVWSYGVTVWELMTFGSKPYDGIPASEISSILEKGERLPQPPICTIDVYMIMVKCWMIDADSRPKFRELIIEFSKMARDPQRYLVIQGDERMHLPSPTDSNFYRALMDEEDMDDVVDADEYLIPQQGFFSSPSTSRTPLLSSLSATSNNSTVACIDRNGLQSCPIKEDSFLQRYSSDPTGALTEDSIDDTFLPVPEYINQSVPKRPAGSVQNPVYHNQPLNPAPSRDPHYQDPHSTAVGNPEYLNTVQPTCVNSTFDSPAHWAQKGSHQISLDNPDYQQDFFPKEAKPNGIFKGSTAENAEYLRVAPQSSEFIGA

[1] = tested on: PC9 cells (EGFR d746-750 single mutant); assay: PC-9 growth inhibition assay (cell proliferation), Method A; type: cell-based, human; conditions: cellular proliferation, PC9 cells, 72 h, CellTiter-Glo (Table 1); read-out: PC9 IC50 (nM) SM
[2] = tested on: NCI-H1975 cells (EGFR L858R/T790 double mutant); assay: H1975 inhibition assay (cell proliferation), Method A; type: cell-based; conditions: cellular proliferation, NCI-H1975 cells, 72 h, CellTiter-Glo (Table 1); read-out: NCI-H1975 IC50 (nM) DM
[3] = tested on: LoVo cells (unmutated EGFR wild type); assay: LoVo growth inhibition assay (cell proliferation), Method A; type: cell-based; conditions: cellular proliferation, 72 h, CellTiter-Glo (Table 1), read-out: LoVo IC50 (nM) WT
Method: Cell Proliferation Assays—Method A
LoVo Growth Inhibition Assay (Cell Proliferation)
The rest of the procedure was carried out in the same manner as described for the H1975 cells.

INSR = molecular target: T2, INSR (Homo sapiens, UniProt P06213); assay: INSR inhibition assay (Caliper EZ Reader); type: biochemical; conditions: enzyme assay
T2 construct: purchased CARNA BIOSCIENCE 08-142
T2 sequence (P06213 989-1382 limits assumed): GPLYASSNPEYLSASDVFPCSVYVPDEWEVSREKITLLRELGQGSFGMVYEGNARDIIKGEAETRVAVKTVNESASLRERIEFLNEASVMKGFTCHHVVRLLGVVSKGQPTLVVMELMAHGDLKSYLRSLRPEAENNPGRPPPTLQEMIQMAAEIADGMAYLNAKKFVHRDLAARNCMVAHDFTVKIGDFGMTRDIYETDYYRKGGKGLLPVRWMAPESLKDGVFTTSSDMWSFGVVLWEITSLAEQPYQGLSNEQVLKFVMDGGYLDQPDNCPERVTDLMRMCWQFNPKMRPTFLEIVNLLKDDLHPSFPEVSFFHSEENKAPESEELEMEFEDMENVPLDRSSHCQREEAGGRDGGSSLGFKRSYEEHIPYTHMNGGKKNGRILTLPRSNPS

IC50 (EGFR_T790M/L858R): 1.5 nM | IC50 (Wt EGFR): 1.6 nM | IC50 [1]: 3.4 nM | IC50 [2]: 2.2 nM | IC50 [3]: 3250 nM | IC50 (INSR): 49.5 nM and 72.2 nM
Structure (SMILES): C=CC(=O)Nc1cc(Nc2nccc(-c3c[nH]c4ccccc34)n2)c(OC)cc1N(C)CCN(C)C [AZD-5104]
